Tests used:
A549 [1] = experiment: Cytotoxicity against human A549 cells after 48 hrs by MTT assay; assay type: functional, cell-based; conditions: A549, 48 h
MCF7 = experiment: Cytotoxicity against human MCF7 cells after 48 hrs by MTT assay; assay type: functional, cell-based; conditions: MCF7, 48 h
PC-3 [2] = experiment: Cytotoxicity against human PC3 cells after 48 hrs by MTT assay; assay type: functional, cell-based; conditions: PC-3, 48 h
HepG2 [3] = experiment: Cytotoxicity against human HepG2 cells after 48 hrs by MTT assay; assay type: functional, cell-based; conditions: HepG2, 48 h
PC-3 [4] = experiment: Potency index, ratio of IC50 for fluorouracil to IC50 for test compound for human PC3 cells; assay type: functional
A549 [5] = experiment: Potency index, ratio of IC50 for fluorouracil to IC50 for test compound for human A549 cells; assay type: functional
PC-3 [6] = experiment: Cell cycle arrest in human PC3 cells assessed as accumulation at G0/G1 phase at 2 uM after 48 hrs by flow cytometry (Rvb=60.55%); assay type: functional
PC-3 [7] = experiment: Cell cycle arrest in human PC3 cells assessed as accumulation at G0/G1 phase at 8 uM after 48 hrs by flow cytometry (Rvb=60.55%); assay type: functional
PC-3 [8] = experiment: Cell cycle arrest in human PC3 cells assessed as accumulation at G2/M phase at 2 uM after 48 hrs by flow cytometry (Rvb=16.72%); assay type: functional
PC-3 [9] = experiment: Cell cycle arrest in human PC3 cells assessed as accumulation at G0/G1 phase at 4 uM after 48 hrs by flow cytometry (Rvb=60.55%); assay type: functional
PC-3 [10] = experiment: Cell cycle arrest in human PC3 cells assessed as accumulation at Sub-G1 phase at 8 uM after 48 hrs by flow cytometry (Rvb=0.37%); assay type: functional
PC-3 [11] = experiment: Cell cycle arrest in human PC3 cells assessed as accumulation at Sub-G1 phase at 2 uM after 48 hrs by flow cytometry (Rvb=0.37%); assay type: functional
PC-3 [12] = experiment: Cell cycle arrest in human PC3 cells assessed as accumulation at G2/M phase at 4 uM after 48 hrs by flow cytometry (Rvb=16.72%); assay type: functional
PC-3 [13] = experiment: Cell cycle arrest in human PC3 cells assessed as accumulation at G2/M phase at 8 uM after 48 hrs by flow cytometry (Rvb=16.72%); assay type: functional
PC-3 [14] = experiment: Cell cycle arrest in human PC3 cells assessed as accumulation at Sub-G1 phase at 4 uM after 48 hrs by flow cytometry (Rvb=0.37%); assay type: functional
PC-3 [15] = experiment: Cell cycle arrest in human PC3 cells assessed as accumulation at G2/M phase after 48 hrs by flow cytometry; assay type: functional, cell-based
PC-3 [16] = experiment: Cell cycle arrest in human PC3 cells assessed as accumulation at S phase at 2 uM after 48 hrs by flow cytometry (Rvb=21.10%); assay type: functional
PC-3 [17] = experiment: Cell cycle arrest in human PC3 cells assessed as accumulation at S phase at 8 uM after 48 hrs by flow cytometry (Rvb=21.10%); assay type: functional
PC-3 [18] = experiment: Cell cycle arrest in human PC3 cells assessed as accumulation at S phase at 4 uM after 48 hrs by flow cytometry (Rvb=21.10%); assay type: functional
HepG2 [19] = experiment: Potency index, ratio of IC50 for fluorouracil to IC50 for test compound for human HepG2 cells; assay type: functional

## COc1ccc(C(=O)C2Sc3nnc(-c4cc(OC)c(OC)c(OC)c4)n3NC2c2cccs2)cc1 (centres undefined)
A549 [1]
  IC50: > 100 µM
MCF7
  IC50: 49.5 µM
PC-3 [2]
  IC50: 95.9 µM
HepG2 [3]
  IC50: 68 µM

## COc1cc(-c2nnc3n2NC(c2cccs2)C(C(=O)c2ccc(Cl)cc2)S3)cc(OC)c1OC (centres undefined)
A549 [1]
  IC50: 20.1 µM
MCF7
  IC50: 42.8 µM
PC-3 [2]
  IC50: 32.5 µM
HepG2 [3]
  IC50: 13.2 µM

## O=c1[nH]cc(F)c(=O)[nH]1 [FLUOROURACIL]
A549 [1]
  IC50: 22.3 µM
MCF7
  IC50: 19.4 µM
PC-3 [2]
  IC50: 22.6 µM

## COc1cc(-c2nnc3n2NC(c2ccco2)C(C(=O)c2cccc(Br)c2)S3)cc(OC)c1OC (centres undefined)
A549 [1]
  IC50: 36.9 µM
MCF7
  IC50: 91.8 µM
PC-3 [2]
  IC50: 63.9 µM
HepG2 [3]
  IC50: > 100 µM

## COc1cc(-c2nnc3n2NC(c2cccs2)C(C(=O)c2ccccc2)S3)cc(OC)c1OC (centres undefined)
A549 [1]
  IC50: 69.4 µM
MCF7
  IC50: > 100 µM
PC-3 [2]
  IC50: 86.3 µM
HepG2 [3]
  IC50: > 100 µM

## COc1cc(-c2nnc3n2NC(c2ccco2)C(C(=O)c2ccc(F)c(F)c2)S3)cc(OC)c1OC (centres undefined)
A549 [1]
  IC50: 93.7 µM
MCF7
  IC50: 73.2 µM
PC-3 [4]
  Ratio IC50: 0.62
PC-3 [2]
  IC50: 36 µM
HepG2 [3]
  IC50: 52.4 µM

## COc1cc(-c2nnc3n2NC(c2ccco2)C(C(=O)c2ccc(F)cc2)S3)cc(OC)c1OC (centres undefined)
A549 [1]
  IC50: 53.7 µM
MCF7
  IC50: > 100 µM
PC-3 [4]
  Ratio IC50: 0.62
PC-3 [2]
  IC50: 27.7 µM
HepG2 [3]
  IC50: > 100 µM

## COc1cc(-c2nnc3n2NC(c2ccco2)C(C(=O)c2cccs2)S3)cc(OC)c1OC (centres undefined)
A549 [1]
  IC50: 78.7 µM
MCF7
  IC50: > 100 µM
PC-3 [2]
  IC50: 46.2 µM
HepG2 [3]
  IC50: 64.1 µM

## COc1cc(-c2nnc3n2NC(c2ccco2)C(C(=O)c2ccc([N+](=O)[O-])cc2)S3)cc(OC)c1OC (centres undefined)
A549 [1]
  IC50: > 100 µM
MCF7
  IC50: > 100 µM
PC-3 [4]
  Ratio IC50: 0.62
PC-3 [2]
  IC50: 27.9 µM
HepG2 [3]
  IC50: 87.8 µM

## COc1cc(C(=O)C2Sc3nnc(-c4cc(OC)c(OC)c(OC)c4)n3NC2c2ccco2)cc(OC)c1OC (centres undefined)
A549 [1]
  IC50: 48.3 µM
MCF7
  IC50: > 100 µM
PC-3 [2]
  IC50: 52.2 µM
HepG2 [3]
  IC50: > 100 µM

## COc1ccc(C(=O)C2Sc3nnc(-c4cc(OC)c(OC)c(OC)c4)n3NC2c2ccco2)cc1 (centres undefined)
A549 [1]
  IC50: > 100 µM
MCF7
  IC50: > 100 µM
PC-3 [2]
  IC50: > 100 µM
HepG2 [3]
  IC50: > 100 µM

## COc1cc(-c2nnc3n2NC(c2cccs2)C(C(=O)c2ccc(C)cc2)S3)cc(OC)c1OC (centres undefined)
A549 [1]
  IC50: 12.7 µM
MCF7
  IC50: 28.4 µM
PC-3 [4]
  Ratio IC50: 3
A549 [5]
  Ratio IC50: 2
PC-3 [6]
  Activity: 33.85%
PC-3 [2]
  IC50: 5.09 µM
HepG2 [3]
  IC50: 3.7 µM
PC-3 [7]
  Activity: 23.69%
PC-3 [8]
  Activity: 47.22%
PC-3 [9]
  Activity: 29.4%
PC-3 [10]
  Activity: 0.38%
PC-3 [11]
  Activity: 0.92%
PC-3 [12]
  Activity: 57%
PC-3 [13]
  Activity: 65.1%
PC-3 [14]
  Activity: 0.3%
PC-3 [15]
  Activity: Dose-dependent effect
PC-3 [16]
  Activity: 15.52%
PC-3 [17]
  Activity: 9.79%
PC-3 [18]
  Activity: 12.53%
HepG2 [19]
  Ratio IC50: 11

## COc1cccc(C(=O)C2Sc3nnc(-c4cc(OC)c(OC)c(OC)c4)n3NC2c2ccco2)c1 (centres undefined)
A549 [1]
  IC50: > 100 µM
MCF7
  IC50: > 100 µM
PC-3 [2]
  IC50: 84.6 µM
HepG2 [3]
  IC50: > 100 µM

## COc1cc(-c2nnc3n2NC(c2cccs2)C(C(=O)c2ccc(F)cc2)S3)cc(OC)c1OC (centres undefined)
A549 [1]
  IC50: 45 µM
MCF7
  IC50: 43.6 µM
PC-3 [2]
  IC50: 27.4 µM
HepG2 [3]
  IC50: 54.2 µM

## COc1cc(C(=O)C2Sc3nnc(-c4cc(OC)c(OC)c(OC)c4)n3NC2c2cccs2)cc(OC)c1OC (centres undefined)
A549 [1]
  IC50: > 100 µM
MCF7
  IC50: 71 µM
PC-3 [2]
  IC50: > 100 µM
HepG2 [3]
  IC50: > 100 µM

## COc1cc(-c2nnc3n2NC(c2ccco2)C(C(=O)c2ccc(Cl)cc2)S3)cc(OC)c1OC (centres undefined)
A549 [1]
  IC50: 51.4 µM
MCF7
  IC50: > 100 µM
PC-3 [2]
  IC50: 67.8 µM
HepG2 [3]
  IC50: 78.6 µM

## COc1cc(-c2nnc3n2NC(c2ccco2)C(C(=O)c2ccc(C)cc2)S3)cc(OC)c1OC (centres undefined)
A549 [1]
  IC50: > 100 µM
MCF7
  IC50: > 100 µM
PC-3 [4]
  Ratio IC50: 3
PC-3 [2]
  IC50: 7.5 µM
HepG2 [3]
  IC50: 17.4 µM
HepG2 [19]
  Ratio IC50: 2.7

## COc1cc(-c2nnc3n2NC(c2ccco2)C(C(=O)c2ccco2)S3)cc(OC)c1OC (centres undefined)
A549 [1]
  IC50: 68.7 µM
MCF7
  IC50: > 100 µM
PC-3 [2]
  IC50: 58.3 µM
HepG2 [3]
  IC50: > 100 µM

## COc1cc(-c2nnc3n2NC(c2ccco2)C(C(=O)c2ccccc2)S3)cc(OC)c1OC (centres undefined)
A549 [1]
  IC50: 33.4 µM
MCF7
  IC50: 39.8 µM
PC-3 [2]
  IC50: 64.3 µM
HepG2 [3]
  IC50: 90.9 µM

## COc1cc(-c2nnc3n2NC(c2ccco2)C(C(=O)c2ccccc2C)S3)cc(OC)c1OC (centres undefined)
A549 [1]
  IC50: 80 µM
MCF7
  IC50: 69.9 µM
PC-3 [2]
  IC50: 88.4 µM
HepG2 [3]
  IC50: 63 µM

## COc1cc(-c2nnc3n2NC(c2ccco2)C(C(=O)c2ccc(O)cc2)S3)cc(OC)c1OC (centres undefined)
A549 [1]
  IC50: 93.4 µM
MCF7
  IC50: 88.9 µM
PC-3 [2]
  IC50: 38.3 µM
HepG2 [3]
  IC50: > 100 µM

## COc1cc(-c2nnc3n2NC(c2ccco2)C(C(=O)c2ccc(-c4ccccc4)cc2)S3)cc(OC)c1OC (centres undefined)
A549 [1]
  IC50: > 100 µM
MCF7
  IC50: > 100 µM
PC-3 [2]
  IC50: 45.9 µM
HepG2 [3]
  IC50: > 100 µM

## COc1cc(-c2nnc3n2NC(c2ccco2)C(C(=O)c2cccc4ccccc24)S3)cc(OC)c1OC (centres undefined)
A549 [1]
  IC50: > 100 µM
MCF7
  IC50: > 100 µM
PC-3 [2]
  IC50: > 100 µM
HepG2 [3]
  IC50: 33.9 µM

## COc1cc(-c2nnc3n2NC(c2ccco2)C(C(=O)c2ccc(Br)cc2)S3)cc(OC)c1OC (centres undefined)
A549 [1]
  IC50: 42.1 µM
MCF7
  IC50: > 100 µM
PC-3 [4]
  Ratio IC50: 0.62
PC-3 [2]
  IC50: 36.4 µM
HepG2 [3]
  IC50: > 100 µM

## COc1cc(-c2nnc3n2NC(c2ccco2)C(C(=O)C2CC2)S3)cc(OC)c1OC (centres undefined)
A549 [1]
  IC50: > 100 µM
MCF7
  IC50: > 100 µM
PC-3 [2]
  IC50: 95.2 µM
HepG2 [3]
  IC50: > 100 µM

## COc1cc(-c2nnc3n2NC(c2ccco2)C(C(=O)c2ccccc2F)S3)cc(OC)c1OC (centres undefined)
A549 [1]
  IC50: 78.7 µM
MCF7
  IC50: 94.8 µM
PC-3 [2]
  IC50: > 100 µM
HepG2 [3]
  IC50: > 100 µM

## COc1cc(-c2nnc3n2NC(c2ccco2)C(C(=O)c2ccc(C(F)(F)F)cc2)S3)cc(OC)c1OC (centres undefined)
A549 [1]
  IC50: 37.1 µM
MCF7
  IC50: 33.6 µM
PC-3 [2]
  IC50: 77.5 µM
HepG2 [3]
  IC50: > 100 µM

— ChEMBL document CHEMBL3632555, “Design, synthesis and biological evaluation of novel 1,2,4-triazolo [3,4-b][1,3,4] thiadiazines bearing furan and thiophene nucleus” (Eur J Med Chem, 2015)
